From US20040038920A1, “Chlamydial peptides and their mimics in demyelinating disease” (priority 2003, published 2004)

Assays:
[1] = test system: T cells from rats immunized with the chlamydial peptide; experiment: T cell proliferation assay (3H-thymidine), Cpn0483-primed T cells; type: cell-based, rat; settings: for Proliferation of peptide-primed T cells in response to irrelevant peptide: specificity control, priming peptide not specified; for Proliferative response of Cpn0483-primed T cells to peptide: 96 hr culture with irradiated thymocytes as APCs, FIG. 3
Method: (§1) To further investigate the immunopathology underlying the clinical observations, T cells were isolated from the spleens of rats immunized with Cpn0483 or MBP68-86, and recall responses were assessed using standard T cell proliferation assays.
(§2) Briefly, splenocytes were isolated from peptide-primed rats, adherent cells were removed by culture on plastic Petri dishes, and T cells were isolated on T cell columns (Biotec, Edmonton, Canada). The T cells were cultured for 96 hr with irradiated (2000rad) syngeneic thymocytes as antigen presenting cells (APCs), and peptide, in 96-well flat-bottom microtiter plates. The cultures were pulsed with ^3H-thymidine (0.5 μCi/well) 18 hr prior to harvesting cells, and 3H-thymidine incorporation was measured in a liquid scintillation counter (Wallac 1450 Microbeta Plus, Gaithersburg, Md.). Cultures were run in quadruplicate and each experiment was repeated at least twice. Dose-response studies were performed using various peptides at differing concentrations, and representative results are presented.

Lewis rats = experiment: Induction of EAE in Lewis rats by immunization with peptide in CFA; type: in vivo, rat; settings: for EAE Severity (mean group severity, max. = 3.0) / EAE Incidence: Lewis rats; for EAE Incidence (# affected animals/total # animals injected) / EAE severity score (in parentheses): Table IV, dose not given; for EAE severity score (in parentheses): max. = 3.0; for Encephalitogenic activity in LEW rats (in words): peptide in CFA, s.c.
Method: Peptides were administered subcutaneously to LEW rats at 5 μg or 50 μg doses in the standard manner. Eight- to twelve-week-old female Lewis rats (purchased from Charles River, Raleigh, N.C.) were immunized subcutaneously at the hind footpad with the appropriate synthetic peptide, emulsified in complete Freund's adjuvant (CFA, Difco, Detroit, Mich.). […] Animals were followed for 21 days post-immunization. Hematoxylin-eosin-stained and toluidine blue-stained spinal cord sections from representative rats were examined for inflammatory cell infiltration and demyelination without knowledge of the group of origin.

[2] = test system: syngeneic recipients (LEW rats); experiment: Transfer of EAE with peptide-activated spleen cells from Cpn0483-immunized rats; type: in vivo, rat; settings: Cpn0483-primed spleen cells activated in vitro with the named peptide for 72 hr
Method: Both are characteristic pathological findings in the rat model of EAE (Zamvil et al., supra; Swanborg, 1995, supra) and are also observed in MS (Raine et al., 1999, supra). […] This feature is prominent in MS, but is not characteristic of acute EAE in LEW rats. When spleen cells were prepared from Cpn0483-immunized LEW rats with EAE and activated in vitro with the same peptide for 72 hr, they transferred clinical disease to 6 of 9 syngeneic recipients. Six of 9 recipients of Cpn-primed spleen cells activated with MBP68-86 also developed clinical EAE. Mononuclear infiltration was present in the spinal cords of recipients with clinical disease, as expected.

[3] = test system: T cells derived from rats immunized with rat MBP68-86; experiment: T cell proliferation assay (3H-thymidine), rat MBP68-86-primed T cells; type: cell-based; settings: 96 hr culture with irradiated thymocytes as APCs, FIG. 4
Method: as §1, §2

[4] = test system: short-term T cell line from Cpn0483 peptide-immunized rats; experiment: Cytokine secretion by short-term T cell line (ELISA); type: cell-based, rat; settings: activated for 72 hr with the chlamydial peptide
Text: It has been well established that EAE in rodents is mediated by IFN-γ-producing Th1 inflammatory cells ((Zamvil et al., supra; Swanborg, supra; R. B. Smeltz et al., J. Immunol. 162, 829 (1999)).

[5] = 5 μg peptide s.c. in CFA, affected/total
[6] = 50 μg peptide s.c. in CFA, Table 2
[7] = 50 μg peptide s.c. in CFA, affected/total, Table 2
[8] = groups given either dose (5 μg or 50 μg)

| Substance | EAE Severity (mean group severity, max. = 3.0) (Lewis rats; [6]) | EAE Incidence (Lewis rats; [7]) | EAE Incidence (# affected animals/total # animals injected) (Lewis rats) | EAE severity score (in parentheses) (Lewis rats) | Encephalitogenic activity in LEW rats (in words) (Lewis rats) | EAE Incidence (Lewis rats; Incidence at 50 μg, Table 3) | further results |
| --- | --- | --- | --- | --- | --- | --- | --- |
| MBP31-50: irrelevant nonencephalitogenic peptide (SVGKLSQTASEDSDVFGEAD; UniProt P04370 31-50, looked up, fragment) | – | – | – | – | – | – | Proliferation of peptide-primed T cells in response to irrelevant peptide [1]: lack of proliferation |
| RFPNHYGSLLPRNPRTEDQN (listed as Chlamydia pneumoniae) [Cpn0483 C > S] | 2.2 | 4/5 | 8/10 | 2.4 | lack of effect | – | EAE Severity (mean group severity, max. = 3.0) (Lewis rats; 5 μg peptide s.c. in CFA): 2.4; EAE Incidence (Lewis rats; [5]): 4/5 |
| YGSLPQKSQRSQDENPV (Guinea pig) [gp68-86, guinea pig myelin basic protein peptide 68-86, reference compound] | 3.0 | 5/5 | – | – | induced clinical disease with comparable severity and time course | – | – |
| YGSLPQKSORTQAENPV (YGSLPQKSQRSQAENPV; listed as Rattus sp.) [MBP D>A, reference compound] | – | – | – | – | abolished encephalitogenic activity | 0/10 | – |
| RFPNHYGCLLPRNPRTEAQN (listed as Chlamydia pneumoniae) [Cpn D>A] | – | – | 9/10 | 2.7 | elicited severe EAE | 9/10 | EAE Severity (mean group severity, max. = 3.0) (Lewis rats; 50 μg, Table 3): 2.7 |
| PNHYGCLLPRNPRTEDQN (listed as Chlamydia pneumoniae) [N2—truncated] | – | – | 0/5 | – | – | – | – |
| NHYGCLLPRNPRTED (listed as Chlamydia pneumoniae) [N3/C2 truncated] | – | – | 0/5 | – | – | – | – |
| YGCLLPRNPRTEDQN (listed as Chlamydia pneumoniae) [N5—truncated] | – | – | 0/5 | – | – | – | – |
| YGSLPQKSQRTQDENPV (listed as Rattus sp.) [rat68-86, rat myelin basic protein peptide 68-86, reference compound] | 2.7 | 10/10 | 5/5 | 3.0 | induced clinical disease with comparable severity and time course | 5/5 | EAE Severity (mean group severity, max. = 3.0) (Lewis rats; 50 μg, Table 3): 3.0; Recipients developing clinical EAE after cell transfer [2]: Six of 9; Proliferative response of Cpn0483-primed T cells to peptide ([1]; listed as rat MBP68-86): responded significantly; Proliferative response of Cpn0483-primed T cells to peptide ([1]; listed as ratMBP68-86): cross-react; Proliferative response of rat MBP68-86-primed T cells to peptide ([3]; listed as rat MBP68-86): proliferated vigorously; Proliferative response of rat MBP68-86-primed T cells to peptide ([3]; listed as ratMBP68-86): respond to priming peptide |
| RFPNHYGCLLPRNPRTEDQN (listed as Chlamydia pneumoniae) [Cpn0483, 20-mer peptide near the C-terminus of C. pneumoniae protein Cpn0483] | 2.3 | 14/15 | 5/5 | 3.0 | encephalitogenic | 5/5 | EAE Severity (mean group severity, max. = 3.0) (Lewis rats; 5 μg peptide s.c. in CFA): 1.8; EAE Incidence (Lewis rats; [5]): 3/5; EAE Severity (mean group severity, max. = 3.0) (Lewis rats; 50 μg, Table 3): 3.0; Demyelination in spinal cord sections (Lewis rats; Luxol fast blue-stained sections): Significant demyelination was not observed; Initial clinical signs of EAE, time post-immunization (Lewis rats; [8]): approximately 12 days; Persistence of clinical signs of EAE (Lewis rats; [8]): 3 to 6 days; Encephalitogenic activity in LEW rats (in words) (Lewis rats; listed as chlamydial peptide): as effective as guinea pig or rat MBP68-86 peptide in causing paralysis; Spinal cord inflammatory cell infiltration (histology) (Lewis rats; spinal cords of immunized rats): Extensive perivascular cuffing and parenchymal mononuclear cell infiltration; Recipients developing clinical EAE after cell transfer [2]: 6 of 9; Proliferative response of Cpn0483-primed T cells to peptide [1]: respond to priming peptide; Proliferative response of Cpn0483-primed T cells to peptide ([1]; listed as chlamydial peptide): responded vigorously; Proliferative response of rat MBP68-86-primed T cells to peptide [3]: cross-reacted only minimally; Proliferative response of rat MBP68-86-primed T cells to peptide ([3]; listed as chlamydial peptide): cross-react; IFN-γ secreted [4]: 7,000 pg/ml; IL-4 production [4]: did not produce detectable IL-4 |
| HYGCLLPRNPRTED (listed as Chlamydia pneumoniae) [N4/C2 truncated] | – | – | 0/5 | – | – | – | – |
| RFPNHYGCLLPRNPR (listed as Chlamydia pneumoniae) [C5—truncated] | – | – | 0/5 | – | – | – | – |
| MBP11-30: irrelevant nonencephalitogenic peptide (SAEKASKDGEIHRGEAGKKR; UniProt P04370 11-30, looked up, fragment) | – | – | – | – | – | – | Proliferation of peptide-primed T cells in response to irrelevant peptide [1]: lack of proliferation |
